Measurements reported in ChEMBL document CHEMBL3046517, “Synthesis and antimicrobial study of fluoroquinolone-based 4-thiazolidinones” (2010).
In brackets after ≈: the same amount, converted by molar mass. Activity calls are given as the source filed them. No cut-off for these calls is given here.

Tests used:
Assay type in all cases: functional
Staphylococcus aureus = test: Antibacterial activity against Staphylococcus aureus by broth dilution method
Pseudomonas aeruginosa = test: Antibacterial activity against Pseudomonas aeruginosa by broth dilution method
Aspergillus clavatus = test: Antifungal activity against Aspergillus clavatus by broth dilution method
Escherichia coli = test: Antibacterial activity against Escherichia coli by broth dilution method
Aspergillus niger = test: Antifungal activity against Aspergillus niger by broth dilution method
Streptococcus pyogenes = test: Antibacterial activity against Streptococcus pyogenes by broth dilution method
Candida albicans = test: Antifungal activity against Candida albicans by broth dilution method

Compound	MIC (Staphylococcus aureus)	MIC (Pseudomonas aeruginosa)	MIC (Aspergillus clavatus)	MIC (Escherichia coli)	MIC (Aspergillus niger)	MIC (Streptococcus pyogenes)	MIC (Candida albicans)	Activity (Staphylococcus aureus)	Activity (Pseudomonas aeruginosa)	Activity (Escherichia coli)	Activity (Streptococcus pyogenes)	Activity (Candida albicans)
O=C(N/N=C\c1ccc(F)cc1)c1cn(C2CC2)c2cc(Cl)c(F)cc2c1=O	500 µg/mL (≈ 1240 µM)	500 µg/mL (≈ 1240 µM)	1000 µg/mL (≈ 2490 µM)	500 µg/mL (≈ 1240 µM)	1000 µg/mL (≈ 2490 µM)	500 µg/mL (≈ 1240 µM)	1000 µg/mL (≈ 2490 µM)					
COc1ccc(/C=N\NC(=O)c2cn(C3CC3)c3cc(N4CCN(c5ccc(OC)cc5)CC4)c(F)cc3c2=O)cc1	500 µg/mL (≈ 878 µM)	200 µg/mL (≈ 351 µM)	> 1000 µg/mL	100 µg/mL (≈ 176 µM)	> 1000 µg/mL	100 µg/mL (≈ 176 µM)	500 µg/mL (≈ 878 µM)					
O=C(N/N=C\c1cccc([N+](=O)[O-])c1)c1cn(C2CC2)c2cc(Cl)c(F)cc2c1=O	1000 µg/mL (≈ 2330 µM)	200 µg/mL (≈ 466 µM)	> 1000 µg/mL	200 µg/mL (≈ 466 µM)	1000 µg/mL (≈ 2330 µM)	1000 µg/mL (≈ 2330 µM)	1000 µg/mL (≈ 2330 µM)					
COc1ccc(N2CCN(c3cc4c(cc3F)c(=O)c(C(=O)NN3C(=O)CSC3c3ccc(O)c(OC)c3)cn4C3CC3)CC2)cc1 (stereo unspecified)	1000 µg/mL (≈ 1520 µM)	1000 µg/mL (≈ 1520 µM)	1000 µg/mL (≈ 1520 µM)	1000 µg/mL (≈ 1520 µM)	> 1000 µg/mL	1000 µg/mL (≈ 1520 µM)	500 µg/mL (≈ 758 µM)					
COc1ccc(N2CCN(c3cc4c(cc3F)c(=O)c(C(=O)NN3C(=O)CSC3c3ccccc3Cl)cn4C3CC3)CC2)cc1 (stereo unspecified)	500 µg/mL (≈ 771 µM)	500 µg/mL (≈ 771 µM)	1000 µg/mL (≈ 1540 µM)	1000 µg/mL (≈ 1540 µM)	> 1000 µg/mL	100 µg/mL (≈ 154 µM)	1000 µg/mL (≈ 1540 µM)					
COc1cc(/C=N\NC(=O)c2cn(C3CC3)c3cc(Cl)c(F)cc3c2=O)ccc1O	200 µg/mL (≈ 465 µM)	200 µg/mL (≈ 465 µM)	1000 µg/mL (≈ 2330 µM)	100 µg/mL (≈ 233 µM)	500 µg/mL (≈ 1160 µM)	500 µg/mL (≈ 1160 µM)	100 µg/mL (≈ 233 µM)					
COc1ccc(C2SCC(=O)N2NC(=O)c2cn(C3CC3)c3cc(N4CCN(c5ccc(OC)cc5)CC4)c(F)cc3c2=O)cc1 (stereo unspecified)	1000 µg/mL (≈ 1550 µM)	500 µg/mL (≈ 777 µM)	> 1000 µg/mL	500 µg/mL (≈ 777 µM)	500 µg/mL (≈ 777 µM)	1000 µg/mL (≈ 1550 µM)	500 µg/mL (≈ 777 µM)					
O=C(N/N=C\c1ccc(Cl)cc1)c1cn(C2CC2)c2cc(Cl)c(F)cc2c1=O	1000 µg/mL (≈ 2390 µM)	1000 µg/mL (≈ 2390 µM)	500 µg/mL (≈ 1200 µM)	1000 µg/mL (≈ 2390 µM)	500 µg/mL (≈ 1200 µM)	1000 µg/mL (≈ 2390 µM)	1000 µg/mL (≈ 2390 µM)					
O=C(Cl)c1cn(C2CC2)c2cc(Cl)c(F)cc2c1=O								Active	Active	Active	Active	Active
O=C(O)c1cn(C2CC2)c2cc(Cl)c(F)cc2c1=O	100 µg/mL (≈ 355 µM)	100 µg/mL (≈ 355 µM)	1000 µg/mL (≈ 3550 µM)	100 µg/mL (≈ 355 µM)	1000 µg/mL (≈ 3550 µM)	100 µg/mL (≈ 355 µM)	500 µg/mL (≈ 1780 µM)					
COc1ccc(N2CCN(c3cc4c(cc3F)c(=O)c(C(=O)NN3C(=O)CSC3c3ccccc3[N+](=O)[O-])cn4C3CC3)CC2)cc1 (stereo unspecified)	200 µg/mL (≈ 304 µM)	100 µg/mL (≈ 152 µM)	1000 µg/mL (≈ 1520 µM)	500 µg/mL (≈ 759 µM)	1000 µg/mL (≈ 1520 µM)	500 µg/mL (≈ 759 µM)	1000 µg/mL (≈ 1520 µM)					
COc1ccc(N2CCN(c3cc4c(cc3F)c(=O)c(C(=O)NN3C(=O)CSC3c3ccccc3O)cn4C3CC3)CC2)cc1 (stereo unspecified)	500 µg/mL (≈ 794 µM)	1000 µg/mL (≈ 1590 µM)	1000 µg/mL (≈ 1590 µM)	500 µg/mL (≈ 794 µM)	1000 µg/mL (≈ 1590 µM)	500 µg/mL (≈ 794 µM)	500 µg/mL (≈ 794 µM)					
COc1ccc(N2CCN(c3cc4c(cc3F)c(=O)c(C(=O)N/N=C\c3ccc(F)cc3)cn4C3CC3)CC2)cc1	500 µg/mL (≈ 897 µM)	500 µg/mL (≈ 897 µM)	500 µg/mL (≈ 897 µM)	250 µg/mL (≈ 448 µM)	500 µg/mL (≈ 897 µM)	500 µg/mL (≈ 897 µM)	500 µg/mL (≈ 897 µM)					
NNC(=O)c1cn(C2CC2)c2cc(Cl)c(F)cc2c1=O	500 µg/mL (≈ 1690 µM)	500 µg/mL (≈ 1690 µM)	500 µg/mL (≈ 1690 µM)	500 µg/mL (≈ 1690 µM)	500 µg/mL (≈ 1690 µM)	500 µg/mL (≈ 1690 µM)	200 µg/mL (≈ 676 µM)					
O=C(O)c1cn(C2CC2)c2cc(N3CCNCC3)c(F)cc2c1=O [CIPROFLOXACIN]	50 µg/mL (≈ 151 µM)			25 µg/mL (≈ 75.4 µM)		50 µg/mL (≈ 151 µM)						
CCn1cc(C(=O)O)c(=O)c2cc(F)c(N3CCNCC3)cc21 [NORFLOXACIN]	10 µg/mL (≈ 31.3 µM)	10 µg/mL (≈ 31.3 µM)		10 µg/mL (≈ 31.3 µM)		10 µg/mL (≈ 31.3 µM)						
O=C(N/N=C\c1ccccc1)c1cn(C2CC2)c2cc(Cl)c(F)cc2c1=O	500 µg/mL (≈ 1300 µM)	1000 µg/mL (≈ 2610 µM)	1000 µg/mL (≈ 2610 µM)	500 µg/mL (≈ 1300 µM)	1000 µg/mL (≈ 2610 µM)	1000 µg/mL (≈ 2610 µM)	500 µg/mL (≈ 1300 µM)					
COc1ccc(N2CCN(c3cc4c(cc3F)c(=O)c(C(=O)NN3C(=O)CSC3c3cccc([N+](=O)[O-])c3)cn4C3CC3)CC2)cc1 (stereo unspecified)	500 µg/mL (≈ 759 µM)	200 µg/mL (≈ 304 µM)	> 1000 µg/mL	500 µg/mL (≈ 759 µM)	1000 µg/mL (≈ 1520 µM)	1000 µg/mL (≈ 1520 µM)	1000 µg/mL (≈ 1520 µM)					
COc1ccc(N2CCN(c3cc4c(cc3F)c(=O)c(C(=O)N/N=C\c3ccc(O)c(OC)c3)cn4C3CC3)CC2)cc1	500 µg/mL (≈ 854 µM)	200 µg/mL (≈ 342 µM)	1000 µg/mL (≈ 1710 µM)	150 µg/mL (≈ 256 µM)	1000 µg/mL (≈ 1710 µM)	500 µg/mL (≈ 854 µM)	1000 µg/mL (≈ 1710 µM)					
COc1ccc(N2CCN(c3cc4c(cc3F)c(=O)c(C(=O)N/N=C\c3cccc([N+](=O)[O-])c3)cn4C3CC3)CC2)cc1	1000 µg/mL (≈ 1710 µM)	500 µg/mL (≈ 855 µM)	1000 µg/mL (≈ 1710 µM)	1000 µg/mL (≈ 1710 µM)	1000 µg/mL (≈ 1710 µM)	500 µg/mL (≈ 855 µM)	1000 µg/mL (≈ 1710 µM)					
